In PMC3195688, “Glucose-6-Phosphate Dehydrogenase Regulation in Anoxia Tolerance of the Freshwater Crayfish Orconectes virilis” (Enzyme Research, 2011):
Read-outs that look alike come from different tables or passages of the source.

System: T1, Glucose-6-phosphate dehydrogenase (G6PDH)
T1 construct: gene G6PD; native enzyme in crude hepatopancreas extract of aerobic control animals, not purified; mixture of low- and high-phosphate forms
Experiment: NADPH production at […] nm, microplate reader
Type: biochemical, Faxonius virilis
Details: untreated extract of aerobic control animals, 50 mM imidazole, pH 7.0, 22 °C, read-out: Control K m

Km (NADP+ constant) | Km (G6P constant) | SMILES
130 ± 16 µM | – | O=P(O)(O)OC[C@H]1OC(O)[C@H](O)[C@@H](O)[C@@H]1O (some centres unmarked) [G6P]
– | 150 ± 8 µM | NC(=O)c1ccc[n+]([C@@H]2O[C@H](COP(=O)(O)OP(=O)(O)OC[C@H]3O[C@@H](n4cnc5c(N)ncnc54)[C@H](OP(=O)(O)O)[C@@H]3O)[C@@H](O)[C@H]2O)c1 [NADP^+]
